Assay results published in patent US9433573B2, “Microfabricated nanopore device for sustained release of therapeutic agent” (Delpor, Inc., priority 2001, dated 2016).

Assays:
[1] = In vitro release of 125I-lysozyme from nanopore membrane implants
Description: (§1) Lysozyme, an enzyme with a molecular weight intermediate between that of glucose and albumin (MW 12,000 Daltons) was used to measure diffusion kinetics through nanopore membranes both in vitro and in vivo. Radiolabeled (^125-I) lysozyme was obtained from ICN Biochemicals. Unlabeled lysozyme was obtained from Sigma Chemical Corp. Radiolabeled lysozyme was admixed with unlabeled lysozyme and loaded into implants as described above for albumin. In vitro release rates for three size membranes are plotted in FIG. 8. Lysozyme release rates are zero-order for membranes pore sizes of 13 nm and 49 nm.

[2] = parameters: species or system rats; settings: rat, in vivo, sc, 80 ug
Description: as §1
Blood levels of lysozyme in groups of three rats given either a single subcutaneous bolus of 80 μg or after implantation of a nanopore implant device designed to release lysozyme at a rate of 17 μg/day are shown in FIG. 9.

For lysozyme, the “lysozyme release rates (kinetics)” value ([1]; membrane pore sizes of 13 nm and 49 nm, in vitro) was “zero-order”, the “flux of lysozyme versus initial concentration” value ([1]; pore size of 13 nm or less, in vitro (data not shown)) was “independent of initial concentration” and the “apparent half-life in blood stream” value [2] was “less than several days”.
